Laboratory results: patent US20250161319A1, “USE OF HPK1 INHIBITOR IN TREATMENT OF INTERFERON-RELATED DISEASES” (priority 2022, published 2025)

What was measured:
CSF1R = CSF1R (Homo sapiens (Human), UniProt P07333); test: Kinase panel inhibition rate at 10 μM; assay type: biochemical
IKK-beta = IKK-beta (Homo sapiens (Human), UniProt O14920); test: Kinase panel inhibition rate at 10 μM; assay type: biochemical
AKT1 = AKT1 (Homo sapiens (Human), UniProt P31749); test: Kinase panel inhibition rate at 10 μM; assay type: biochemical
AKT1, sequence (P31749 whole entry): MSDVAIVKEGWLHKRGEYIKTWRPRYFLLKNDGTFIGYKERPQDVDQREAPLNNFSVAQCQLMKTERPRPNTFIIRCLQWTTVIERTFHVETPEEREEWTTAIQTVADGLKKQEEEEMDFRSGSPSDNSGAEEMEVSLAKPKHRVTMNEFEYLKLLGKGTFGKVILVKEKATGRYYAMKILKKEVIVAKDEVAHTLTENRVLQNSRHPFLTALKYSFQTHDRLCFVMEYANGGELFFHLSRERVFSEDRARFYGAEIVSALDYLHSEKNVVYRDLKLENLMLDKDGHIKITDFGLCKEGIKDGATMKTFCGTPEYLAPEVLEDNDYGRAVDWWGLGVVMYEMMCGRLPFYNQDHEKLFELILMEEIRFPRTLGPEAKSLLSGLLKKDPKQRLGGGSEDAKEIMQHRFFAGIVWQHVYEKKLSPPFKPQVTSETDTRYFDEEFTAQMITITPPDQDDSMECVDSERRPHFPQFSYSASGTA

PI3Kα = PI3Kα (Homo sapiens (Human), UniProt P42336); test: Kinase panel inhibition rate at 10 μM; assay type: biochemical
[1] = Acute toxicity assay of DD02001A_trans in mice by gavage; assay type: in vivo; details: single dose, observed 14 days
Method: Mice were given DD02001A_trans (2000, 1500, 1000, and 500 mg/kg) by gavage in a single dose, respectively, and the responses of the mice after administration and their deaths within two weeks were recorded. • 2.2.5.1 Animals: Kunming breed mice (purchased from Guangdong Provincial Laboratory Animal Centre, License No.: SCXK(GD) 2018-0002), 10 mice, half male and half female, weighing 18-22 g. The mice were kept for three days to adapt to the environment. […] Necropsy was carried out on the dead animals in time to record the lesions. If obvious changes are visible to naked eyes, pathological section should be made.

SYK = SYK (Homo sapiens (Human), UniProt P43405); test: Kinase panel inhibition rate at 10 μM; assay type: biochemical
TNIK = TNIK (Homo sapiens (Human), UniProt Q9UKE5); test: Inhibition of TNIK kinase activity in vitro (ADP-Glo); assay type: biochemical
Method: (§1) The starting concentration for all tested compounds was 10 μM, and diluted in three-fold concentration gradient for a total of 10 concentration points in duplicate. […] A mixture of 2-fold concentration of MBP and ATP was prepare in the kinase buffer, and 2.5 μL of prepared mixture of 2-fold concentration of MBP and ATP was added into the above reaction system for the reaction, centrifuged at 1000 g for 30 s, and then incubated at room temperature for 1 h. 5 μL of ADP-Glo reagent was added into the reaction system, and incubated at room temperature for 40 min. 10 μL of kinase detection reagent was added and incubated at room temperature for 40 min.

CDK7 = CDK7 (Homo sapiens (Human), UniProt P50613); test: Kinase panel inhibition rate at 10 μM; assay type: biochemical
ERK1.2 = test: Kinase panel inhibition rate at 10 μM; assay type: biochemical
CDK4 = CDK4 (Homo sapiens (Human), UniProt P11802); test: Kinase panel inhibition rate at 10 μM; assay type: biochemical
LYNB = LYNB (Homo sapiens (Human), UniProt P07948); test: Kinase panel inhibition rate at 10 μM; assay type: biochemical
p38-alpha = p38-alpha (Homo sapiens (Human), UniProt Q16539); test: Kinase panel inhibition rate at 10 μM; assay type: biochemical
PDK1 = PDK1 (Homo sapiens (Human), UniProt O15530); test: Inhibition of PDK1 kinase activity in vitro (ADP-Glo); assay type: biochemical
Method: as §1

ZAP70 = ZAP70 (Homo sapiens (Human), UniProt P43403); test: Kinase panel inhibition rate at 10 μM; assay type: biochemical
[2] = Determination of pharmacokinetic parameters in SD rats; assay type: in vivo; details: rat, plasma, oral; male SD rats; intravenously 2 mg/kg, gavage 10 mg/kg; read-out: Absolute oral bioavailability %
Method: The compounds to be tested were administered intravenously (2 mg/kg) and by gavage ([…]) to three male SD rats, respectively, and the blood concentration of the compounds to be tested in plasma was quantified by liquid chromatography tandem mass spectrometry ([…]), and the pharmacokinetic parameters were calculated to investigate the pharmacokinetic profiles of the compounds to be tested in the SD male rats. For the compounds to be tested, blood was taken at the time points of 0.25 h, 0.5 h, 1 h, 2 h, 4 h, 6 h, 8 h and 24 h after oral administration, and blood was taken at the time points of 0.083 h, 0.25 h, 0.5 h, 1 h, 2 h, 4 h, 6 h, 8 h and 24 h after intravenous administration. Subsequently, 50 μL of plasma sample was transferred to a 96-well plate and 250 μLACN (internal standard containing 260 ng/ml toluenesulfonylbutyramide) to precipitate proteins, and centrifuged at 4° C. and 4000 rpm for 20 min, 150 μL of the supernatant was transferred to a new 96-well plate and mixed with 150 μL of 0.1% FA/water, and then 5 μL of the resulting solution was loaded on LC-MS/MS for analysis.

HPK1 = HPK1 (Homo sapiens (Human), UniProt Q92918); test: Inhibition of HPK1 kinase activity in vitro (ADP-Glo), compounds of Formula I-2; assay type: biochemical
Method: The starting concentration for all tested compounds was 10 μM, and diluted in three-fold concentration gradient for a total of 10 concentration points in duplicate. Before the experiment, 50 μM DTT and the enzymatic reaction system buffer were prepared. […] A mixture of 2-fold concentration of MBP and ATP was prepare in the kinase buffer, and 2.5 μL of prepared mixture of 2-fold concentration of MBP and ATP was added into the above reaction system for the reaction, centrifuged at 1000 g for 30 s, and then incubated at room temperature for 1 h. 5 μL of ADP-Glo reagent was added into the reaction system, and incubated at room temperature for 40 min. 10 μL of kinase detection reagent was added and incubated at room temperature for 40 min. […] In the above formula, empd refers to the tested compound, PC refers to the positive control, and VC refers to the negative control.

ROS1 = ROS1 (Homo sapiens (Human), UniProt P08922); test: Kinase panel inhibition rate at 10 μM; assay type: biochemical
GCK = GCK (Homo sapiens (Human), UniProt Q12851); test: Inhibition of GCK kinase activity in vitro (ADP-Glo); assay type: biochemical
Method: as §1

CDK12 = CDK12 (Homo sapiens (Human), UniProt Q9NYV4); test: Kinase panel inhibition rate at 10 μM; assay type: biochemical
CDK12, sequence (Q9NYV4 whole entry, species assumed): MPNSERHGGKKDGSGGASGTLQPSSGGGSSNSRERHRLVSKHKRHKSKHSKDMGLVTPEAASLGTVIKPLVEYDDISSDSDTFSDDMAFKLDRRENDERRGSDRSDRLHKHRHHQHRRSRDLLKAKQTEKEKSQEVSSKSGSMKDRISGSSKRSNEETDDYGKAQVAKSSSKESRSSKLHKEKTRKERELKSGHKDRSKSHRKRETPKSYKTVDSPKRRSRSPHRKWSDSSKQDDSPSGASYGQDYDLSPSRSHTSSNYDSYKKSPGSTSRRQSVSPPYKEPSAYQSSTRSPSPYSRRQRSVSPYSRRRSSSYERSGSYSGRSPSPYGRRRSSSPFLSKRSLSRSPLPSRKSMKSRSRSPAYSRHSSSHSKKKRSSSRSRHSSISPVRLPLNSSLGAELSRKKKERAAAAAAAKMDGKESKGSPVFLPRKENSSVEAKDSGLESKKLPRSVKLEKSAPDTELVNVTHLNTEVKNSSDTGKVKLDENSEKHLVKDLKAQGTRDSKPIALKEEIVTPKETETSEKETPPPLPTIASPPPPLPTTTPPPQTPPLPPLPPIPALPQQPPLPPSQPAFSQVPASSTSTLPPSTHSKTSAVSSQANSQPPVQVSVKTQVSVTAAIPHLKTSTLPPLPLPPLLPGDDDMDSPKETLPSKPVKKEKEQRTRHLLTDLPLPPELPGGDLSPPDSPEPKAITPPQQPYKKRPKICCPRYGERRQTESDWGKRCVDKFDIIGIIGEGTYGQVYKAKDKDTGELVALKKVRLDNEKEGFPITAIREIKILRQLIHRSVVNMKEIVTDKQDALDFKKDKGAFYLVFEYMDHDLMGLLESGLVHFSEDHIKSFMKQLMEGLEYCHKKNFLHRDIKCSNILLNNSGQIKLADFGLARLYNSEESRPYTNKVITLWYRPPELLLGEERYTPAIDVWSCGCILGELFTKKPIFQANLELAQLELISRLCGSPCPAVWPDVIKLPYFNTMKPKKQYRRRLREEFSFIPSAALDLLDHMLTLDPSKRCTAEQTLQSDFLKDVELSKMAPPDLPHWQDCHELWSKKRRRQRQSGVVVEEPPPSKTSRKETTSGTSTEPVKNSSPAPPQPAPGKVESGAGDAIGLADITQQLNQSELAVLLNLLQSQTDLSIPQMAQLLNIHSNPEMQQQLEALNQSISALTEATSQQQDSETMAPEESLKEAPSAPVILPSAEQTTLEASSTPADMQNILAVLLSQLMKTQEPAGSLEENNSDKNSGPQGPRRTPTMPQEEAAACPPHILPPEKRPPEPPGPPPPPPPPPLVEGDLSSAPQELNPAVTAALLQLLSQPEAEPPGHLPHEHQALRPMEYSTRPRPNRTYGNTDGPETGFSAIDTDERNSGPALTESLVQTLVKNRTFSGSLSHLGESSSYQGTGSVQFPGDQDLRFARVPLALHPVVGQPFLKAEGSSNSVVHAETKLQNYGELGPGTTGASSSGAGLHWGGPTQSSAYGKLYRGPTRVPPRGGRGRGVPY
CDK12, sequence (O75909 whole entry partner, species assumed): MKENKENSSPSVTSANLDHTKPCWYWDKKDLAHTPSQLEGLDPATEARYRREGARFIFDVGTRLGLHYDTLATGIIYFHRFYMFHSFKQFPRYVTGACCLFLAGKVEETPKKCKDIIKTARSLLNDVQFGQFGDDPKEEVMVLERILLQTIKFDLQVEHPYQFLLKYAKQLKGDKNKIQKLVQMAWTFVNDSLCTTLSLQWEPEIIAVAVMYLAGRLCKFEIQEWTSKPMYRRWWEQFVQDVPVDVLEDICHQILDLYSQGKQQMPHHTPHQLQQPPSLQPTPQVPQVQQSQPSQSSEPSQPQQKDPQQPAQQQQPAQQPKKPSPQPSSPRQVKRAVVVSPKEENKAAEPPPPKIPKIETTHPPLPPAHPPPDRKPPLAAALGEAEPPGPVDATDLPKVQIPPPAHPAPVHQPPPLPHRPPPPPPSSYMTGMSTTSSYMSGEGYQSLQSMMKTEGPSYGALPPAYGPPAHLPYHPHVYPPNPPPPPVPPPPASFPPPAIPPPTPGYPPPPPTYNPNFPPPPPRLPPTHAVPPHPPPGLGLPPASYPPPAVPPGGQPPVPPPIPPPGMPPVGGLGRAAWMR

IGFIR = IGFIR (Homo sapiens (Human), UniProt P08069); test: Kinase panel inhibition rate at 10 μM; assay type: biochemical
IGFIR, sequence (P08069 31-1367): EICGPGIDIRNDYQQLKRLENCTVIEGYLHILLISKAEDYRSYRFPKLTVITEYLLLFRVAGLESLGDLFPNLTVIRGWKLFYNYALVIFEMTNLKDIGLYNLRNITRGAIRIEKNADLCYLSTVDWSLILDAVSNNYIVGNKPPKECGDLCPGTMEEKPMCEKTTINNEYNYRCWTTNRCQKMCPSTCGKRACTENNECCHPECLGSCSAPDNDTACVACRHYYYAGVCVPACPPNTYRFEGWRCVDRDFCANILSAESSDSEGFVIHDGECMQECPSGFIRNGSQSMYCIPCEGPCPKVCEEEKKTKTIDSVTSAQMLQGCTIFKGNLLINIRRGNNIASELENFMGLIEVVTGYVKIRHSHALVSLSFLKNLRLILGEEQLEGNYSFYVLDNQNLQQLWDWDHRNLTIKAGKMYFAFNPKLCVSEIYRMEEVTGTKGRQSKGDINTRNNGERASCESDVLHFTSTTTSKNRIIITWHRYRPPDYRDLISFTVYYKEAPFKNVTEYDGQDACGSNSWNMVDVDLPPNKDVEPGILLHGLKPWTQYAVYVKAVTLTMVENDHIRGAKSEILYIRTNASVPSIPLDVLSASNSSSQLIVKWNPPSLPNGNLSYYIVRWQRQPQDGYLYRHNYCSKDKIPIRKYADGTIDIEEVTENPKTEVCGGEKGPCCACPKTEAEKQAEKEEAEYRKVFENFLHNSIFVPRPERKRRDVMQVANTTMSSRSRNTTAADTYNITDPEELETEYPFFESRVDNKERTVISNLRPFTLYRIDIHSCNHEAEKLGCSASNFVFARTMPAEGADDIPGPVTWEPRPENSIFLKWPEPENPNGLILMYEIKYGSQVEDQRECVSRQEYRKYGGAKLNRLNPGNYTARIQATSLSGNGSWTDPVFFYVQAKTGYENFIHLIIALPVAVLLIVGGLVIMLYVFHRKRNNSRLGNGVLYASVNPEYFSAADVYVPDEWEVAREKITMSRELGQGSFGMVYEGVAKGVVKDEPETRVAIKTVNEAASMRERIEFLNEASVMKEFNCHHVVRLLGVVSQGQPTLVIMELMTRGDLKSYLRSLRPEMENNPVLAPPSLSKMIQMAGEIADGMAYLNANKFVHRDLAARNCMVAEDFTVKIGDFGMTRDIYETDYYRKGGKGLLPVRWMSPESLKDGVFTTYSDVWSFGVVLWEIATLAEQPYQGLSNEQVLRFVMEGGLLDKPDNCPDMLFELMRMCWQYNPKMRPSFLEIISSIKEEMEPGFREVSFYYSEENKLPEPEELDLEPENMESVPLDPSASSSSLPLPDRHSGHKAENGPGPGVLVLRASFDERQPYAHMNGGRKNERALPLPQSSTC

LCK = LCK (Homo sapiens (Human), UniProt P06239); test: Kinase panel inhibition rate at 10 μM; assay type: biochemical
ATR = ATR (Homo sapiens (Human), UniProt Q13535); test: Kinase panel inhibition rate at 10 μM; assay type: biochemical
JAK1 = JAK1 (Homo sapiens (Human), UniProt P23458); test: Kinase panel inhibition rate at 10 μM; assay type: biochemical
JAK1, sequence (P23458 whole entry): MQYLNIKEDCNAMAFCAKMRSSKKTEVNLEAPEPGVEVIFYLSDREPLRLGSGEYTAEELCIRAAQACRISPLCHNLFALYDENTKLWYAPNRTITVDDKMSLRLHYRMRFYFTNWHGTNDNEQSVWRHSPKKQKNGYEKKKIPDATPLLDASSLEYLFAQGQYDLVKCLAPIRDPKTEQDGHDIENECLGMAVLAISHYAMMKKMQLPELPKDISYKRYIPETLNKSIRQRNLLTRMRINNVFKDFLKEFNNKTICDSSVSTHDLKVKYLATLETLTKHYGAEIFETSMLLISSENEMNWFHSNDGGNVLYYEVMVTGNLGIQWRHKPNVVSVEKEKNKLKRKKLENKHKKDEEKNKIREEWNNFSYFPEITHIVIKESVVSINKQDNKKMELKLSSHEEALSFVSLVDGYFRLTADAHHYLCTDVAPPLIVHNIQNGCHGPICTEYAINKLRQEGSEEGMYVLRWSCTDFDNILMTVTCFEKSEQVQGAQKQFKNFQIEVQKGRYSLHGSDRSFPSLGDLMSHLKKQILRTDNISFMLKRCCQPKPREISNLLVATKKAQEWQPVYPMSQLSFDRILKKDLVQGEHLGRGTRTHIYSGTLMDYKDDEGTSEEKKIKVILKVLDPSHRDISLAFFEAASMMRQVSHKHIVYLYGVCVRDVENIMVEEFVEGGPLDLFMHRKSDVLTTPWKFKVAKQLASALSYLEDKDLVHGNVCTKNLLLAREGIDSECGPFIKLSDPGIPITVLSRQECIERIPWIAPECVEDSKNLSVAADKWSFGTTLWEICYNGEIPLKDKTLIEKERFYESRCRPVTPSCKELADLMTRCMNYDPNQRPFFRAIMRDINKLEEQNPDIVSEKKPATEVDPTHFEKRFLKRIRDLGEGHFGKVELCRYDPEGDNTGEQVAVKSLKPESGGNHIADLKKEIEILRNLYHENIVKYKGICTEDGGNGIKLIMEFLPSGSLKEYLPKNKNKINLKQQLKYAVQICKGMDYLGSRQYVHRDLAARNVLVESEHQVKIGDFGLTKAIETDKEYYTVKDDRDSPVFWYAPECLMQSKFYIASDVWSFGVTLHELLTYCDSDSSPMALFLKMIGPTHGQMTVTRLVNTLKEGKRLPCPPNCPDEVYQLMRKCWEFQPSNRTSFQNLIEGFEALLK

EGFR = EGFR (Homo sapiens (Human), UniProt P00533); test: Kinase panel inhibition rate at 10 μM; assay type: biochemical
MNK1/2 = test: Kinase panel inhibition rate at 10 μM; assay type: biochemical
CK1gamma1 = CK1gamma1 (Homo sapiens (Human), UniProt Q9HCP0); test: Kinase panel inhibition rate at 10 μM; assay type: biochemical
HER2 = HER2 (Homo sapiens (Human), UniProt P04626); test: Kinase panel inhibition rate at 10 μM; assay type: biochemical

Question: With `Cn1cccc1-c1cc2cc(NC(=O)[C@@H]3C[C@H]3F)ncc2c(N)c1F` [DD02001A trans, (1S,2R)—N-(8-amino-7-fluoro-6-(1-methyl-1H-pyrrole-2-yl)isoquinolin-3-yl)-2-fluorocyclopropane-1-carboxamide] as the compound, how does the inhibition at 10 µM (CSF1R) read?
Answer: Its inhibition at 10 µM is 102%.

Question: And the inhibition at 10 µM (IKK-beta)?
Answer: Its inhibition at 10 µM is less than 40%.

Question: What about the inhibition at 10 µM (AKT1) of the same compound?
Answer: The inhibition at 10 µM was less than 40%.

Question: What about the inhibition at 10 µM (PI3Kα) of the same compound?
Answer: Its inhibition at 10 µM is 79.1%.

Question: What about the “maximum tolerated dosage by gavage” value [1] of the same compound?
Answer: The value was 1000 to 1500 mg/kg.

Question: And the inhibition at 10 µM (SYK)?
Answer: The inhibition at 10 µM was 85.1%.

Question: And the IC50 (TNIK)?
Answer: Its IC50 is greater than 10 nM.

Question: And the inhibition at 10 µM (CDK7)?
Answer: Its inhibition at 10 µM is less than 40%.

Question: And the “inhibition rate ERK1.2” value (ERK1.2)?
Answer: Its value is less than 40%.

Question: And the inhibition at 10 µM (CDK4)?
Answer: Its inhibition at 10 µM is less than 40%.

Question: What about the inhibition at 10 µM (LYNB) of the same compound?
Answer: The inhibition at 10 µM was 82.9%.

Question: And the inhibition at 10 µM (p38-alpha)?
Answer: The inhibition at 10 µM was less than 40%.

Question: What about the IC50 (PDK1) of the same compound?
Answer: The IC50 was greater than 10000 nM.

Question: And the inhibition at 10 µM (ZAP70)?
Answer: The inhibition at 10 µM was less than 40%.

Question: And the bioavailability [2]?
Answer: Its bioavailability is 61.3%.

Question: And the IC50 (HPK1)?
Answer: Its IC50 is less than 10 nM.

Question: What about the inhibition at 10 µM (ROS1) of the same compound?
Answer: Its inhibition at 10 µM is less than 40%.

Question: What about the IC50 (GCK) of the same compound?
Answer: The IC50 was greater than 10 nM.

Question: What about the inhibition at 10 µM (CDK12) of the same compound?
Answer: The inhibition at 10 µM was less than 40%.

Question: What about the inhibition at 10 µM (IGFIR) of the same compound?
Answer: Its inhibition at 10 µM is less than 40%.

Question: And the inhibition at 10 µM (LCK)?
Answer: Its inhibition at 10 µM is 87.6%.

Question: What about the inhibition at 10 µM (ATR) of the same compound?
Answer: The inhibition at 10 µM was less than 40%.

Question: And the inhibition at 10 µM (JAK1)?
Answer: Its inhibition at 10 µM is 97.3%.

Question: And the inhibition at 10 µM (EGFR)?
Answer: Its inhibition at 10 µM is less than 40%.

Question: What about the “inhibition rate MNK1/2” value (MNK1/2) of the same compound?
Answer: The value was less than 40%.

Question: What about the inhibition at 10 µM (CK1gamma1) of the same compound?
Answer: The inhibition at 10 µM was less than 40%.

Question: What about the inhibition at 10 µM (HER2) of the same compound?
Answer: The inhibition at 10 µM was less than 40%.
